Measurements as given in PubChem BioAssay (NCI).
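Results reflect a 48-hour exposure of cells in 96-well plates to compound at five concentrations. TGI is the concentration that stops growth completely.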

Key:
Assay in all cases: NCI tumour cell line growth inhibition, 48 h
OVCAR-4 ovarian = test system: OVCAR-4 ovarian
SK-MEL-5 melanoma = test system: SK-MEL-5 melanoma
SF-539 CNS = test system: SF-539 CNS
LOX IMVI melanoma = test system: LOX IMVI melanoma
HCT-15 colon = test system: HCT-15 colon
RXF 393 renal = test system: RXF 393 renal
M19-MEL melanoma = test system: M19-MEL melanoma
IGROV1 ovarian = test system: IGROV1 ovarian
MOLT-4 leukemia = test system: MOLT-4 leukemia
KM20L2 colon = test system: KM20L2 colon
EKVX NSCLC = test system: EKVX NSCLC
MCF7 breast = test system: MCF7 breast
HT29 colon = test system: HT29 colon
HL-60(TB) leukemia = test system: HL-60(TB) leukemia
SW-620 colon = test system: SW-620 colon
SF-295 CNS = test system: SF-295 CNS
SF-268 CNS = test system: SF-268 CNS
UACC-257 melanoma = test system: UACC-257 melanoma
HOP-18 NSCLC = test system: HOP-18 NSCLC
OVCAR-3 ovarian = test system: OVCAR-3 ovarian
UO-31 renal = test system: UO-31 renal
KM12 colon = test system: KM12 colon
XF 498 CNS = test system: XF 498 CNS
HOP-92 NSCLC = test system: HOP-92 NSCLC
SK-MEL-28 melanoma = test system: SK-MEL-28 melanoma
P388/ADR leukemia = test system: P388/ADR leukemia
HOP-62 NSCLC = test system: HOP-62 NSCLC
CCRF-CEM leukemia = test system: CCRF-CEM leukemia
NCI/ADR-RES ovarian = test system: NCI/ADR-RES ovarian
SK-OV-3 ovarian = test system: SK-OV-3 ovarian
SNB-78 CNS = test system: SNB-78 CNS
NCI-H226 lung = test system: NCI-H226 lung
P388 leukemia = test system: P388 leukemia
SN12C renal = test system: SN12C renal
K-562 leukemia = test system: K-562 leukemia
HCC-2998 colon = test system: HCC-2998 colon
COLO 205 colon = test system: COLO 205 colon
NCI-H23 lung = test system: NCI-H23 lung
DMS 273 small cell lung = test system: DMS 273 small cell lung
SNB-19 CNS = test system: SNB-19 CNS
A498 renal = test system: A498 renal
DMS 114 small cell lung = test system: DMS 114 small cell lung
HCT-116 colon = test system: HCT-116 colon
NCI-H522 lung = test system: NCI-H522 lung
NCI-H460 lung = test system: NCI-H460 lung
U251 CNS = test system: U251 CNS
SK-MEL-2 melanoma = test system: SK-MEL-2 melanoma
SN12K1 renal = test system: SN12K1 renal
SNB-75 CNS = test system: SNB-75 CNS
UACC-62 melanoma = test system: UACC-62 melanoma
OVCAR-8 ovarian = test system: OVCAR-8 ovarian
A549 NSCLC = test system: A549 NSCLC
MALME-3M melanoma = test system: MALME-3M melanoma
OVCAR-5 ovarian = test system: OVCAR-5 ovarian
DLD-1 colon = test system: DLD-1 colon
RPMI-8226 leukemia = test system: RPMI-8226 leukemia
CAKI-1 renal = test system: CAKI-1 renal

## COC(=O)C(C/C=C(\C)c1ccccc1)C(C)=O (configuration not stated)
OVCAR-4 ovarian
  TGI: > 100 µM
SK-MEL-5 melanoma
  TGI: > 100 µM
SF-539 CNS
  TGI: > 100 µM
LOX IMVI melanoma
  TGI: > 100 µM
HCT-15 colon
  TGI: > 100 µM
RXF 393 renal
  TGI: > 100 µM
M19-MEL melanoma
  TGI: > 100 µM
IGROV1 ovarian
  TGI: > 100 µM
MOLT-4 leukemia
  TGI: 51.6 µM
KM20L2 colon
  TGI: > 100 µM
EKVX NSCLC
  TGI: > 100 µM
MCF7 breast
  TGI: > 100 µM
HT29 colon
  TGI: > 100 µM
HL-60(TB) leukemia
  TGI: 53.6 µM
SW-620 colon
  TGI: > 100 µM
SF-295 CNS
  TGI: > 100 µM
SF-268 CNS
  TGI: > 100 µM
UACC-257 melanoma
  TGI: > 87.4 µM
HOP-18 NSCLC
  TGI: > 100 µM
OVCAR-3 ovarian
  TGI: > 100 µM
UO-31 renal
  TGI: > 100 µM
KM12 colon
  TGI: > 100 µM
XF 498 CNS
  TGI: > 100 µM
HOP-92 NSCLC
  TGI: 98.3 µM
SK-MEL-28 melanoma
  TGI: > 100 µM
P388/ADR leukemia
  TGI: > 100 µM
HOP-62 NSCLC
  TGI: > 100 µM
CCRF-CEM leukemia
  TGI: > 100 µM
NCI/ADR-RES ovarian
  TGI: > 100 µM
SK-OV-3 ovarian
  TGI: > 100 µM
SNB-78 CNS
  TGI: > 100 µM
NCI-H226 lung
  TGI: > 100 µM
P388 leukemia
  TGI: > 82.1 µM
SN12C renal
  TGI: > 100 µM
K-562 leukemia
  TGI: > 100 µM
HCC-2998 colon
  TGI: > 100 µM
COLO 205 colon
  TGI: > 100 µM
NCI-H23 lung
  TGI: > 100 µM
DMS 273 small cell lung
  TGI: > 100 µM
SNB-19 CNS
  TGI: > 100 µM
A498 renal
  TGI: > 100 µM
DMS 114 small cell lung
  TGI: > 95.9 µM
HCT-116 colon
  TGI: > 100 µM
NCI-H522 lung
  TGI: > 100 µM
NCI-H460 lung
  TGI: > 100 µM
U251 CNS
  TGI: > 100 µM
SK-MEL-2 melanoma
  TGI: > 100 µM
SN12K1 renal
  TGI: > 82.8 µM
SNB-75 CNS
  TGI: > 100 µM
UACC-62 melanoma
  TGI: > 100 µM
OVCAR-8 ovarian
  TGI: > 100 µM
A549 NSCLC
  TGI: > 100 µM
MALME-3M melanoma
  TGI: > 100 µM
OVCAR-5 ovarian
  TGI: > 100 µM
DLD-1 colon
  TGI: > 100 µM
RPMI-8226 leukemia
  TGI: > 100 µM

## Cc1c2cnccc2c(C)c2c1c1ccccc1n2CC1CO1 (configuration not stated)
OVCAR-4 ovarian
  TGI: 5.46 µM
SK-MEL-5 melanoma
  TGI: 2.23 µM
SF-539 CNS
  TGI: 2.52 µM
LOX IMVI melanoma
  TGI: 2.74 µM
HCT-15 colon
  TGI: 4.56 µM
RXF 393 renal
  TGI: 1.92 µM
M19-MEL melanoma
  TGI: 2.94 µM
IGROV1 ovarian
  TGI: 5.99 µM
MOLT-4 leukemia
  TGI: 0.328 µM
KM20L2 colon
  TGI: 4.62 µM
EKVX NSCLC
  TGI: 2.08 µM
MCF7 breast
  TGI: 2.91 µM
HT29 colon
  TGI: 4.82 µM
HL-60(TB) leukemia
  TGI: 0.597 µM
SW-620 colon
  TGI: 2.8 µM
SF-295 CNS
  TGI: 3.2 µM
CAKI-1 renal
  TGI: 4.87 µM
SF-268 CNS
  TGI: 2.09 µM
UACC-257 melanoma
  TGI: 3.51 µM
HOP-18 NSCLC
  TGI: 6.56 µM
OVCAR-3 ovarian
  TGI: 3.76 µM
UO-31 renal
  TGI: 3.02 µM
KM12 colon
  TGI: 10.9 µM
HOP-92 NSCLC
  TGI: 4.31 µM
SK-MEL-28 melanoma
  TGI: 4.03 µM
P388/ADR leukemia
  TGI: 1.61 µM
HOP-62 NSCLC
  TGI: 3.34 µM
CCRF-CEM leukemia
  TGI: 1.28 µM
NCI/ADR-RES ovarian
  TGI: 3.57 µM
SK-OV-3 ovarian
  TGI: 6.93 µM
SNB-78 CNS
  TGI: 5.14 µM
NCI-H226 lung
  TGI: 5.54 µM
P388 leukemia
  TGI: 1.26 µM
SN12C renal
  TGI: 1.31 µM
K-562 leukemia
  TGI: 3.24 µM
HCC-2998 colon
  TGI: 4.4 µM
COLO 205 colon
  TGI: 2.87 µM
NCI-H23 lung
  TGI: 8.4 µM
DMS 273 small cell lung
  TGI: 2.43 µM
SNB-19 CNS
  TGI: 5.59 µM
A498 renal
  TGI: 0.581 µM
DMS 114 small cell lung
  TGI: 2.43 µM
HCT-116 colon
  TGI: 5.07 µM
NCI-H522 lung
  TGI: 3.29 µM
NCI-H460 lung
  TGI: 2.52 µM
U251 CNS
  TGI: 9.1 µM
SK-MEL-2 melanoma
  TGI: 3.44 µM
SN12K1 renal
  TGI: 2.2 µM
SNB-75 CNS
  TGI: 0.861 µM
UACC-62 melanoma
  TGI: 8.19 µM
OVCAR-8 ovarian
  TGI: 2.8 µM
A549 NSCLC
  TGI: 4.85 µM
MALME-3M melanoma
  TGI: 3.44 µM
OVCAR-5 ovarian
  TGI: 5.54 µM
DLD-1 colon
  TGI: 4.58 µM
RPMI-8226 leukemia
  TGI: 7.6 µM
